Measurements reported in patent US6759557B2, “Melanin production inhibitors and skincare products containing such inhibitors” (Takasago International Corporation, priority 2001, dated 2004).

Columns and labels:
melanoma cells B-16 = experiment: Inhibiting effect on melanin synthesis in pigment cells (whiteness of cell residue observed by eye); format: cell-based; set-up: key to whiteness of cells rated by eye (melanin synthesis inhibition): −: same colour as the comparative solvent example (black); +: slight colour difference from the comparative solvent example (black grey); ++: clear colour difference from the comparative solvent example (white grey); +++: no colour in the cells (white); details: 4 days, B-16 melanoma cells
Protocol: In plastic culture flasks ([…]), 5×10^4 of melanoma cells B-16 were respectively inoculated and cultivated at 37° C. in DMEM culture media each containing 10% of blood serum (Nippon Suisan Co. Ltd) in the presence of 5% of carbon dioxide. After two days of cultivation, test samples diluted with ethanol were added to the culture media, so as to set their concentrations, respectively, at 1.6, 3.1 and 6.3 ppm for the compounds of Formula (1) where X is —CO— or —CHOH—, and at 0.8, 1.6 and 3.1 ppm for the compounds of Formula (1) where X is —CO—CHOH—. The culture media were further cultivated for 4 days.
When the cultivation was terminated, the culture media were removed from the respective flasks and the remaining cells were rinsed with a phosphate buffer solution (PBS hereinafter). The cells in each flask were treated with a culture medium containing trypsin and EDTA (ethylenediaminetetracetic acid) to yield cell suspensions. The latter were subjected to centrifugation, and the cells were recovered.
The obtained cells were once washed with PBS. The residues were observed by eye, and their whiteness was rated as below.

SMILES	whiteness of cells rated by eye (melanin synthesis inhibition) (melanoma cells B-16; 0.8 ppm in culture medium)	whiteness of cells rated by eye (melanin synthesis inhibition) (melanoma cells B-16; 1.6 ppm in culture medium)	whiteness of cells rated by eye (melanin synthesis inhibition) (melanoma cells B-16; 3.1 ppm in culture medium)	melting point
O=C1CCCCCCCCCCCCCCCCC1O (centres unmarked) [2-hydroxycyclooctadecanone]	+	++	+++	31 to 32 °C
O=C1CCCCCCCCCCCCCCCCCCCCCCC1O (centres unmarked) [2-hydroxycyclotetracosanone]	++	+++	+++	39 to 40 °C
